Biological target: T1, hKv3.1b (Homo sapiens, UniProt P48547)
T1 construct: expressed in transfected cells
T1 sequence (P48547 1-585 isoform P48547-2): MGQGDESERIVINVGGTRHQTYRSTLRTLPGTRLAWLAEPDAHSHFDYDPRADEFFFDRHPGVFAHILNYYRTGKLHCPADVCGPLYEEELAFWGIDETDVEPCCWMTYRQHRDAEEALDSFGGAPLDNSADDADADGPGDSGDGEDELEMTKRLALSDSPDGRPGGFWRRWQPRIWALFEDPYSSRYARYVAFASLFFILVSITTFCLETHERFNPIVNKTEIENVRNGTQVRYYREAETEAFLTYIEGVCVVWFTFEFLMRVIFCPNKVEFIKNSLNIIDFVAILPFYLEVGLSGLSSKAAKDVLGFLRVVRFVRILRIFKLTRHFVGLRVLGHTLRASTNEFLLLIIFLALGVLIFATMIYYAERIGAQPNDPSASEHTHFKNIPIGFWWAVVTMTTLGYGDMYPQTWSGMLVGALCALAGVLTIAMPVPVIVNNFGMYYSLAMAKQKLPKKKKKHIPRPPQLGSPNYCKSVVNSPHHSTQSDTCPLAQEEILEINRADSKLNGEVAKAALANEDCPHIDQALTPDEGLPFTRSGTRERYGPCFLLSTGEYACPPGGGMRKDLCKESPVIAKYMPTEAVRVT
Experiment: Automated patch clamp (QPatch-16x) on HEK-293 cells stably expressing hKv3.1b
Type: cell-based
Settings: for ECdelta5 mV: concentration needed to shift the activation threshold 5 mV; for Threshold Shift: maximum absolute hyperpolarizing shift of activation threshold at tested concentrations 0.37-30 μM
Method in brief: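 Whole-cell automated patch clamp, extracellular pH 7.4, 4 mM Na2ATP intracellular; holding −80 mV, 200 ms steps −70 to +10 mV. Five ascending concentrations (0.37–30 μM) per cell, ~3 min each, 0.33% DMSO vehicle. Activation threshold (5% of vehicle peak at 10 mV) shift fitted sigmoidally; ECdelta5 mV read from curve.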

SMILES	ECdelta5 mV [nM]	Threshold Shift [mV]
Cc1ccc(S(=O)(=O)n2ccc(C(=O)NCc3cnc(Cl)cn3)c2)cc1 [Compound 89, N-[(5-chloropyrazin-2-yl)methyl]-1-(4-methylbenzene-1-sulfonyl)-1H-pyrrole-3-carboxamide]	660	23
Cc1cnc(CNC(=O)c2ccn(S(=O)(=O)c3ccc(C(F)(F)F)cc3)c2)cn1 [Compound 91, N-[(5-methylpyrazin-2-yl)methyl]-1-[4-(trifluoromethyl)benzene-1-sulfonyl]-1H-pyrrole-3-carboxamide]	1800	20
Cc1cnc(CNC(=O)c2ccn(S(=O)(=O)c3ccc(F)c(Cl)c3)c2)cn1 [Compound 92, 1-(3-chloro-4-fluorobenzene-1-sulfonyl)-N-[(5-methylpyrazin-2-yl)methyl]-1H-pyrrole-3-carboxamide]	3400	12
Cc1cnc(CNC(=O)c2ccn(S(=O)(=O)c3ccc(C(F)F)cc3)c2)cn1 [Compound 93, 1-[4-(difluoromethyl)benzene-1-sulfonyl]-N-[(5-methylpyrazin-2-yl)methyl]-1H-pyrrole-3-carboxamide]	1500	34
Cc1ccc(S(=O)(=O)n2ccc(C(=S)NCc3cnc(C)cn3)c2)cc1 [Compound 94, 1-(4-methylbenzene-1-sulfonyl)-N-[(5-methylpyrazin-2-yl)methyl]-1H-pyrrole-3-carbothioamide]	1100	19
Cc1ccc(S(=O)(=O)n2ccc(C(=O)NCc3cnc(C)cn3)c2)c(F)c1 [Compound 95, 1-(2-fluoro-4-methyl-phenyl)sulfonyl-N-[(5-methylpyrazin-2-yl)methyl]pyrrole-3-carboxamide]	1100	24
COc1ccc(S(=O)(=O)n2ccc(C(=O)NCc3cnc(C)cn3)c2)c(F)c1 [Compound 96, 1-(2-fluoro-4-methoxy-phenyl)sulfonyl-N-[(5-methylpyrazin-2-yl)methyl]pyrrole-3-carboxamide]	1300	35
COc1ccc(S(=O)(=O)n2ccc(C(=O)NCc3cnc(C)cn3)c2)cc1F [Compound 97, 1-(3-fluoro-4-methoxy-phenyl)sulfonyl-N-[(5-methylpyrazin-2-yl)methyl]pyrrole-3-carboxamide]	3200	18
COc1ccc(S(=O)(=O)n2ccc(C(=O)NCc3cnc(C)cn3)c2)c(C)c1 [Compound 98, 1-(4-methoxy-2-methyl-phenyl)sulfonyl-N-[(5-methylpyrazin-2-yl)methyl]pyrrole-3-carboxamide]	710	36
Cc1cnc(CNC(=O)c2ccn(S(=O)(=O)c3c(C)cc(F)cc3C)c2)cn1 [Compound 99, 1-(4-fluoro-2,6-dimethyl-phenyl)sulfonyl-N-[(5-methylpyrazin-2-yl)methyl]pyrrole-3-carboxamide]	1900	21
Cc1cnc(CNC(=O)c2ccn(S(=O)(=O)c3cc(C)c(F)c(C)c3)c2)cn1 [Compound 100, 1-(4-fluoro-3,5-dimethyl-phenyl)sulfonyl-N-[(5-methylpyrazin-2-yl)methyl]pyrrole-3-carboxamide]	4300	15
Cc1cnc(CNC(=O)c2ccn(S(=O)(=O)c3ccc(F)c(C)c3)c2)cn1 [Compound 101, 1-(4-fluoro-3-methyl-phenyl)sulfonyl-N-[(5-methylpyrazin-2-yl)methyl]pyrrole-3-carboxamide]	2000	23
Cc1cnc(CNC(=O)c2ccn(S(=O)(=O)c3ccc4c(c3)CCO4)c2)cn1 [Compound 102, 1-(2,3-dihydrobenzofuran-5-ylsulfonyl)-N-[(5-methylpyrazin-2-yl)methyl]pyrrole-3-carboxamide]	1400	32
Cc1cc(C)c(S(=O)(=O)n2ccc(C(=O)NCc3cnc(C)cn3)c2)c(C)c1 [Compound 103, N-[(5-methylpyrazin-2-yl)methyl]-1-(2,4,6-trimethylphenyl)sulfonyl-pyrrole-3-carboxamide]	720	24
COc1ccc(S(=O)(=O)n2ccc(C(=O)NCc3cnc(C)cn3)c2)c(Cl)c1 [Compound 104, 1-(2-chloro-4-methoxy-phenyl)sulfonyl-N-[(5-methylpyrazin-2-yl)methyl]pyrrole-3-carboxamide]	1000	31
COc1ccc(S(=O)(=O)n2ccc(C(=O)NCc3cnc(C)cn3)c2)c(Br)c1 [Compound 105, 1-(2-bromo-4-methoxy-phenyl)sulfonyl-N-[(5-methylpyrazin-2-yl)methyl]pyrrole-3-carboxamide]	1200	24
CNc1cnc(CNC(=O)c2ccn(S(=O)(=O)c3ccc(C)cc3F)c2)cn1 [Compound 106, 1-(2-fluoro-4-methylbenzene-1-sulfonyl)-N-{[5-(methylamino)pyrazin-2-yl]methyl}-1H-pyrrole-3-carboxamide]	550	42
CNc1cnc(CNC(=O)c2ccn(S(=O)(=O)c3ccc(OC(F)F)cc3)c2)cn1 [Compound 107, 1-[4-(difluoromethoxy)benzene-1-sulfonyl]-N-{[5-(methylamino)pyrazin-2-yl]methyl}-1H-pyrrole-3-carboxamide]	1800	36
Cc1ccc(S(=O)(=O)n2ccc(C(=O)NCc3cnn(C)n3)c2)cc1 [Compound 109, 1-(4-methylbenzene-1-sulfonyl)-N-[(2-methyl-2H-1,2,3-triazol-4-yl)methyl]-1H-pyrrole-3-carboxamide]	1200	29
COc1ncc(CNC(=O)c2ccn(S(=O)(=O)c3ccc(C)cc3F)c2)cn1 [Compound 110, 1-(2-fluoro-4-methylbenzene-1-sulfonyl)-N-[(2-methoxypyrimidin-5-yl)methyl]-1H-pyrrole-3-carboxamide]	1300	24
Cc1cnc(CNC(=O)c2ccn(S(=O)(=O)c3ccccc3)c2)c(C)n1 [Compound 111, 1-(benzenesulfonyl)-N-[(3,5-dimethylpyrazin-2-yl)methyl]-1H-pyrrole-3-carboxamide]	2900	21
COc1ncc(CNC(=O)c2ccn(S(=O)(=O)c3ccc(OC(F)F)cc3)c2)cn1 [Compound 112, 1-[4-(difluoromethoxy)benzene-1-sulfonyl]-N-[(2-methoxypyrimidin-5-yl)methyl]-1H-pyrrole-3-carboxamide]	4100	17
Cc1cnc(CNC(=O)c2ccn(S(=O)(=O)c3ccccc3)c2)c(Cl)n1 [Compound 113, 1-(benzenesulfonyl)-N-[(3-chloro-5-methylpyrazin-2-yl)methyl]-1H-pyrrole-3-carboxamide]	3500	14
Cc1ccc(S(=O)(=O)n2ccc(C(=O)NCc3cnc(C)s3)c2)cc1 [Compound 114, 1-(4-methylbenzene-1-sulfonyl)-N-[(2-methyl-1,3-thiazol-5-yl)methyl]-1H-pyrrole-3-carboxamide]	1600	15
